Values of other authors in patent publication US12285483B2 (priority 2020, dated 2025).

Details: pure solanesol, room temperature

solanesol
solubility in water: insoluble in water
